PubChem BioAssay (NCI)
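Here, GI50 denotes the concentration required for 50% inhibition of growth. TGI is the concentration that stops growth completely.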

How the values were obtained:
Experiment in all cases: growth of human tumour cells (NCI), 384-well format
SN12C renal = tested on: SN12C renal
HCC-2998 colon = tested on: HCC-2998 colon
NCI/ADR-RES ovarian = tested on: NCI/ADR-RES ovarian
IGROV1 ovarian = tested on: IGROV1 ovarian
DU-145 prostate = tested on: DU-145 prostate
OVCAR-4 ovarian = tested on: OVCAR-4 ovarian
OVCAR-3 ovarian = tested on: OVCAR-3 ovarian
MDA-MB-468 breast = tested on: MDA-MB-468 breast
KM12 colon = tested on: KM12 colon
MALME-3M melanoma = tested on: MALME-3M melanoma
T-47D breast = tested on: T-47D breast
SF-539 CNS = tested on: SF-539 CNS
HS 578T breast = tested on: HS 578T breast
HOP-92 NSCLC = tested on: HOP-92 NSCLC
NCI-H460 NSCLC = tested on: NCI-H460 NSCLC
HT29 colon = tested on: HT29 colon
NCI-H522 lung = tested on: NCI-H522 lung
UACC-257 melanoma = tested on: UACC-257 melanoma
SNB-19 CNS = tested on: SNB-19 CNS
TK-10 renal = tested on: TK-10 renal
CCRF-CEM leukemia = tested on: CCRF-CEM leukemia
RPMI-8226 leukemia = tested on: RPMI-8226 leukemia
HL-60(TB) leukemia = tested on: HL-60(TB) leukemia
CAKI-1 renal = tested on: CAKI-1 renal
NCI-H322M lung = tested on: NCI-H322M lung
SW-620 colon = tested on: SW-620 colon
SK-MEL-5 melanoma = tested on: SK-MEL-5 melanoma
HOP-62 NSCLC = tested on: HOP-62 NSCLC
COLO 205 colon = tested on: COLO 205 colon
M14 melanoma = tested on: M14 melanoma
SR leukemia = tested on: SR leukemia
RXF 393 renal = tested on: RXF 393 renal
ACHN renal = tested on: ACHN renal
HCT-116 colon = tested on: HCT-116 colon
HCT-15 colon = tested on: HCT-15 colon
PC-3 prostate = tested on: PC-3 prostate
SF-295 CNS = tested on: SF-295 CNS
U251 glioblastoma = tested on: U251 glioblastoma
786-0 renal = tested on: 786-0 renal
SK-OV-3 ovarian = tested on: SK-OV-3 ovarian
BT-549 breast = tested on: BT-549 breast
MOLT-4 leukemia = tested on: MOLT-4 leukemia
NCI-H226 lung = tested on: NCI-H226 lung
NCI-H23 lung = tested on: NCI-H23 lung
SK-MEL-2 melanoma = tested on: SK-MEL-2 melanoma
UACC-62 melanoma = tested on: UACC-62 melanoma
SK-MEL-28 melanoma = tested on: SK-MEL-28 melanoma
OVCAR-5 ovarian = tested on: OVCAR-5 ovarian
K-562 leukemia = tested on: K-562 leukemia
EKVX NSCLC = tested on: EKVX NSCLC
SNB-75 CNS = tested on: SNB-75 CNS
MDA-MB-231 breast = tested on: MDA-MB-231 breast
SF-268 CNS = tested on: SF-268 CNS
MCF7 breast = tested on: MCF7 breast
UO-31 renal = tested on: UO-31 renal
A498 renal = tested on: A498 renal
A549 NSCLC = tested on: A549 NSCLC
LOX IMVI melanoma = tested on: LOX IMVI melanoma
MDA-MB-435 melanoma = tested on: MDA-MB-435 melanoma

CC(C)=CCC/C(C)=C/CC/C(C)=C/CSc1ccccc1C(=O)O
GI50 (SN12C renal): > 100 µM
TGI (SN12C renal): > 100 µM
GI50 (HCC-2998 colon): > 100 µM
TGI (HCC-2998 colon): > 100 µM
GI50 (NCI/ADR-RES ovarian): > 100 µM
TGI (NCI/ADR-RES ovarian): > 100 µM
GI50 (IGROV1 ovarian): > 100 µM
TGI (IGROV1 ovarian): > 100 µM
GI50 (DU-145 prostate): > 100 µM
TGI (DU-145 prostate): > 100 µM
GI50 (OVCAR-4 ovarian): > 100 µM
TGI (OVCAR-4 ovarian): > 100 µM
GI50 (OVCAR-3 ovarian): > 100 µM
TGI (OVCAR-3 ovarian): > 100 µM
GI50 (MDA-MB-468 breast): > 100 µM
TGI (MDA-MB-468 breast): > 100 µM
GI50 (KM12 colon): > 100 µM
TGI (KM12 colon): > 100 µM
GI50 (MALME-3M melanoma): > 100 µM
TGI (MALME-3M melanoma): > 100 µM
GI50 (T-47D breast): > 100 µM
TGI (T-47D breast): > 100 µM
GI50 (SF-539 CNS): > 100 µM
TGI (SF-539 CNS): > 100 µM
GI50 (HS 578T breast): > 100 µM
TGI (HS 578T breast): > 100 µM
GI50 (HOP-92 NSCLC): > 100 µM
TGI (HOP-92 NSCLC): > 100 µM
GI50 (NCI-H460 NSCLC): > 100 µM
TGI (NCI-H460 NSCLC): > 100 µM
GI50 (HT29 colon): > 100 µM
TGI (HT29 colon): > 100 µM
GI50 (NCI-H522 lung): 16.2 µM
TGI (NCI-H522 lung): 43.6 µM
GI50 (UACC-257 melanoma): > 100 µM
TGI (UACC-257 melanoma): > 100 µM
GI50 (SNB-19 CNS): > 100 µM
TGI (SNB-19 CNS): > 100 µM
GI50 (TK-10 renal): > 100 µM
TGI (TK-10 renal): > 100 µM
GI50 (CCRF-CEM leukemia): 45.2 µM
TGI (CCRF-CEM leukemia): > 100 µM
GI50 (RPMI-8226 leukemia): 47.9 µM
TGI (RPMI-8226 leukemia): > 100 µM
GI50 (HL-60(TB) leukemia): 83.7 µM
TGI (HL-60(TB) leukemia): > 100 µM
GI50 (CAKI-1 renal): > 100 µM
TGI (CAKI-1 renal): > 100 µM
GI50 (NCI-H322M lung): > 100 µM
TGI (NCI-H322M lung): > 100 µM
GI50 (SW-620 colon): > 100 µM
TGI (SW-620 colon): > 100 µM
GI50 (SK-MEL-5 melanoma): > 100 µM
TGI (SK-MEL-5 melanoma): > 100 µM
GI50 (HOP-62 NSCLC): > 100 µM
TGI (HOP-62 NSCLC): > 100 µM
GI50 (COLO 205 colon): > 100 µM
TGI (COLO 205 colon): > 100 µM
GI50 (M14 melanoma): > 100 µM
TGI (M14 melanoma): > 100 µM
GI50 (SR leukemia): 54.2 µM
TGI (SR leukemia): > 100 µM
GI50 (RXF 393 renal): 70.4 µM
TGI (RXF 393 renal): > 100 µM
GI50 (ACHN renal): > 100 µM
TGI (ACHN renal): > 100 µM
GI50 (HCT-116 colon): > 100 µM
TGI (HCT-116 colon): > 100 µM
GI50 (HCT-15 colon): 73.3 µM
TGI (HCT-15 colon): > 100 µM
GI50 (PC-3 prostate): > 100 µM
TGI (PC-3 prostate): > 100 µM
GI50 (SF-295 CNS): > 100 µM
TGI (SF-295 CNS): > 100 µM
GI50 (U251 glioblastoma): > 100 µM
TGI (U251 glioblastoma): > 100 µM
GI50 ([…]-0 renal): > 100 µM
TGI (786-0 renal): > 100 µM
GI50 (SK-OV-3 ovarian): > 100 µM
TGI (SK-OV-3 ovarian): > 100 µM
GI50 (BT-549 breast): > 100 µM
TGI (BT-549 breast): > 100 µM
GI50 (MOLT-4 leukemia): 51.3 µM
TGI (MOLT-4 leukemia): > 100 µM
GI50 (NCI-H226 lung): > 100 µM
TGI (NCI-H226 lung): > 100 µM
GI50 (NCI-H23 lung): > 100 µM
TGI (NCI-H23 lung): > 100 µM
GI50 (SK-MEL-2 melanoma): > 100 µM
TGI (SK-MEL-2 melanoma): > 100 µM
GI50 (UACC-62 melanoma): > 100 µM
TGI (UACC-62 melanoma): > 100 µM
GI50 (SK-MEL-28 melanoma): > 100 µM
TGI (SK-MEL-28 melanoma): > 100 µM
GI50 (OVCAR-5 ovarian): > 100 µM
TGI (OVCAR-5 ovarian): > 100 µM
GI50 (K-562 leukemia): > 100 µM
TGI (K-562 leukemia): > 100 µM
GI50 (EKVX NSCLC): > 100 µM
TGI (EKVX NSCLC): > 100 µM
GI50 (SNB-75 CNS): > 100 µM
TGI (SNB-75 CNS): > 100 µM
GI50 (MDA-MB-231 breast): > 100 µM
TGI (MDA-MB-231 breast): > 100 µM
GI50 (SF-268 CNS): > 100 µM
TGI (SF-268 CNS): > 100 µM
GI50 (MCF7 breast): > 100 µM
TGI (MCF7 breast): > 100 µM
GI50 (UO-31 renal): > 100 µM
TGI (UO-31 renal): > 100 µM
GI50 (A498 renal): > 100 µM
TGI (A498 renal): > 100 µM
GI50 (A549 NSCLC): 90.1 µM
TGI (A549 NSCLC): > 100 µM
GI50 (LOX IMVI melanoma): > 100 µM
TGI (LOX IMVI melanoma): > 100 µM
GI50 (MDA-MB-435 melanoma): > 100 µM
TGI (MDA-MB-435 melanoma): > 100 µM
